According to patent US20110160167A1, “Steroid Derivatives Acting As Glucocorticosteroid Receptor Agonists” (AstraZeneca AB, priority 2007, published 2011):

Target: T1, recombinant human GR (Homo sapiens, UniProt P04150)
T1 construct: purchased Panvera/Invitrogen P2812 (kit P2893)
T1 sequence (P04150 1-777): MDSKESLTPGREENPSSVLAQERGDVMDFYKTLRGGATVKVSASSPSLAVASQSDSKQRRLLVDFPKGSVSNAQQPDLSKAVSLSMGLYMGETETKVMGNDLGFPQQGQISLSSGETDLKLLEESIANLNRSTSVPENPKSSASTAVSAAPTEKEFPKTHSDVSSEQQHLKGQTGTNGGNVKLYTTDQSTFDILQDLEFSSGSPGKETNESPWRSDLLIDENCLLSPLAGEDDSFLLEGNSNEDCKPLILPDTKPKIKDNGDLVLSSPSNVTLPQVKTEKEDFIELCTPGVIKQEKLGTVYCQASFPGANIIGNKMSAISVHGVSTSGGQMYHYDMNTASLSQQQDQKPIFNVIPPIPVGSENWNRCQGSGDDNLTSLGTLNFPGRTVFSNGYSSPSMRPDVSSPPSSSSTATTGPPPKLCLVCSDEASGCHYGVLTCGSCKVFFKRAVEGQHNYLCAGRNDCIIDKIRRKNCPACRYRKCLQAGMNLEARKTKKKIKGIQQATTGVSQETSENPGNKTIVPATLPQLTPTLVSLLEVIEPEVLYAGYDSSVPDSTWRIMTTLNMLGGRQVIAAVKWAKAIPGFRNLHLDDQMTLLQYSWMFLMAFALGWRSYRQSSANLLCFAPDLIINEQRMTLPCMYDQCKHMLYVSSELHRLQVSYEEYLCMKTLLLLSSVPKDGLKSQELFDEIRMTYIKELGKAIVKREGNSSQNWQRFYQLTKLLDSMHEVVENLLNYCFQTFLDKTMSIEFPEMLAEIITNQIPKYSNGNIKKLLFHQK
Assay: Human Glucocorticoid Receptor (GR) Assay (fluorescence polarization, Panvera/Invitrogen kit)
Settings: GS Red tracer, 2 hours at room temperature, 100% control 10 μM Dexamethasone, read-out: Inhibition of GR binding, IC50
Protocol: Human Glucocorticoid Receptor (GR) Assay The assay is based on a commercial kit from Panvera/Invitrogen (Part number P2893). The assay technology is fluorescence polarization. The kit utilises recombinant human GR (Panvera, Part number P2812), a Fluoromone™ labelled tracer (GS Red, Panvera, Part number P2894) and a Stabilizing Peptide 10× (Panvera, Part number P2815). The GR and Stabilizing Peptide reagents are stored at −70° C. while the GS Red is stored at −20° C. Also included in the kit are 1M DTT (Panvera, Part number P2325, stored at −20° C.) and GR Screening buffer 10× (Panvera, Part number P2814, stored at −70° C. initially but once thawed stored at room temperature). Avoid repeated freeze/thaws for all reagents. The GR Screening buffer 10× comprises 100 mM potassium phosphate, 200 mM sodium molybdate, 1 mM EDTA and 20% DMSO. Test compounds (1 μL) and controls (1 μL) in 100% DMSO were added to black polystyrene 384-well plates (Greiner low volume black flat-bottom, part number 784076). 0% control was 100% DMSO and 100% control was 10 μM Dexamethasone. Background solution (8 μL; assay buffer 10×, Stabilizing Peptide, DTT and ice cold MQ water) was added to the background wells. GS Red solution (7 μL; assay buffer 10×, Stabilizing Peptide, DTT, GS Red and ice cold water) was added to all wells except background wells. GR solution (7 μL; assay buffer 10×, Stabilizing Peptide, DTT, GR and ice cold water) was added to all wells. The plate was sealed and incubated in a dark at room temperature for 2 hours. The plate was read in an Analyst plate reader (LJL Biosystems/Molecular Devices Corporation) or other similar plate reader capable of recording fluorescence polarization (excitation wavelength 530 nm, emission wavelength 590 nm and a dichroic mirror at 561 nm).

CCC[C@@H]1O[C@@H]2C[C@H]3[C@@H]4CCC5=Cc6c(cnn6-c6ccc(F)c(CN7CCC(CO)CC7)c6)C[C@]5(C)[C@H]4[C@@H](O)C[C@]3(C)[C@]2(C(=O)CO)O1 [Example 13, 1-[(4aR,4bS,5S,6aS,6bS, 8R,9aR,10aS,10bS)-1-(4-fluoro-3-{[4-(hydroxymethyl)piperidin-1-yl]methyl}phenyl)-5-hydroxy-4a,6a-dimethyl-8-propyl-4,4a,4b,5,6,6a,9a,10, 10a,10b,11,12-dodecahydro[1,3]dioxolo [3′,4′]cyclopenta [1′,2′:5,6]naphtho[1,2-f]indazol-6b(1H)-yl]-2-hydroxyethanone trifluoroacetic acid]
IC50: 32 nM

CCC[C@H]1O[C@@H]2C[C@H]3[C@@H]4CCC5=Cc6c(cnn6-c6ccc(F)c(CN7CCC(CO)CC7)c6)C[C@]5(C)[C@H]4[C@@H](O)C[C@]3(C)[C@]2(C(=O)CO)O1 [Example 14, 1-[(4aR,4bS,5S,6aS,6bS, 8S,9aR,10aS,10bS)-1-(4-fluoro-3-{[4-(hydroxymethyl)-piperidin-1-yl]methyl}phenyl)-5-hydroxy-4a,6a-dimethyl-8-propyl-4,4a,4b,5,6,6a,9a,10, 10a,10b,11,12-dodecahydro[1,3]dioxolo [3′,4′]cyclopenta [1′,2′:5,6]naphtho[1,2-f]indazol-6b(1H)-yl]-2-hydroxyethanone trifluoroacetic acid]
IC50: 47 nM

CCC[C@@H]1O[C@@H]2C[C@H]3[C@@H]4CCC5=Cc6c(cnn6-c6ccc(F)c(CNCCO)c6)C[C@]5(C)[C@H]4[C@@H](O)C[C@]3(C)[C@]2(C(=O)CO)O1 [Example 15, 1-[(4aR,4bS,5S,6aS,6bS, 8R,9aR,10aS,10bS)-1-(4-fluoro-3-{[(2-hydroxyethyl)amino]-methyl}phenyl)-5-hydroxy-4a,6a-dimethyl-8-propyl-4,4a, 4b,5,6,6a,9a,10,- 10a,10b,11,12-dodecahydro [1,3]dioxolo-[3′,4′]cyclopenta[1′,2′:5,6]naphtho[1,2-f]indazol-6b(1H)-yl]-2-hydroxyethanone trifluoroacetic acid]
IC50: 42 nM

CCC[C@@H]1O[C@@H]2C[C@H]3[C@@H]4CCC5=Cc6c(cnn6-c6ccc(F)c(CO)c6)C[C@]5(C)[C@H]4[C@@H](O)C[C@]3(C)[C@]2(C(=O)CO)O1 [Example 16, 1-[(4aR,4bS,5S,6aS,6bS,8R,9aR,10aS,10bS)-1-[4-Fluoro-3-(hydroxymethyl)phenyl]-5-hydroxy-4a,6a-dimethyl-8-propyl-4,4a,4b,5,6,6a,9a,10,10a,10b,11,12-dodecahydro[1,3]dioxolo[3′,4′]cyclopenta[1′,2′:5,6]naphtho[1,2-f]indazol-6b(1H)-yl]-2-hydroxyethanone]
IC50: 3.1 nM

CCC[C@H]1O[C@@H]2C[C@H]3[C@@H]4CCC5=Cc6c(cnn6-c6ccc(F)c(CO)c6)C[C@]5(C)[C@H]4[C@@H](O)C[C@]3(C)[C@]2(C(=O)CO)O1 [Example 17, 1-[(4aR,4bS,5S,6aS,6bS,8S,9aR,10aS,10bS)-1-[4-Fluoro-3-(hydroxymethyl)phenyl]-5-hydroxy-4a,6a-dimethyl-8-propyl-4,4a,4b,5,6,6a,9a,10,10a,10b,11,12-dodecahydro[1,3]dioxolo[3′,4′]cyclopenta[1′,2′:5,6]naphtho[1,2-f]indazol-6b(1H)-yl]-2-hydroxyethanone]
IC50: 6.6 nM

CCC[C@@H]1O[C@@H]2C[C@H]3[C@@H]4CCC5=Cc6c(cnn6-c6ccc(F)cc6)C[C@]5(C)[C@H]4[C@@H](O)C[C@]3(C)[C@]2(C(=O)CO)O1 [Example 18, 1-[(4aR,4bS,5S,6aS,6bS,8R,9aR,10aS,10bS)-1-(4-Fluorophenyl)-5-hydroxy-4a,6a-dimethyl-8-propyl-4,4a,4b,5,6,6a,9a,10,10a,10b,11,12-dodecahydro[1,3]dioxolo[3′,4′]-cyclopenta[1′,2′:5,6]naphtho[1,2-f]indazol-6b(1H)-yl]-2-hydroxyethanone]
IC50: 2.3 nM

CCC[C@H]1O[C@@H]2C[C@H]3[C@@H]4CCC5=Cc6c(cnn6-c6ccc(F)cc6)C[C@]5(C)[C@H]4[C@@H](O)C[C@]3(C)[C@]2(C(=O)CO)O1 [Example 19, 1-[(4aR,4bS,5S,6aS,6bS,8S,9aR,10aS,10bS)-1-(4-Fluorophenyl)-5-hydroxy-4a,6a-dimethyl-8-propyl-4,4a,4b,5,6,6a,9a,10,10a,10b,11,12-dodecahydro[1,3]dioxolo-[3′,4′]cyclopenta[1′,2′:5,6]naphtho[1,2-f]indazol-6b(1H)-yl]-2-hydroxyethanone]
IC50: 2.7 nM

CC1(C)O[C@@H]2C[C@H]3[C@@H]4CCC5=Cc6c(cnn6-c6ccc(F)cc6)C[C@]5(C)[C@H]4[C@@H](O)C[C@]3(C)[C@]2(C(=O)CO)O1 [Example 20, 1-[(4aR,4bS,5S,6aS,6bS,9aR,10aS,10bS)-1-(4-Fluorophenyl)-5-hydroxy-4a,6a,8,8-tetramethyl-4,4a,4b,5,6,6a,9a,10,10a,10b,11,12-dodecahydro[1,3]dioxolo-[3′,4′]cyclopenta[1′,2′:5,6]naphtho[1,2-f]indazol-6b(1H)-yl]-2-hydroxyethanone]
IC50: 1.3 nM

CC1(C)O[C@@H]2C[C@H]3[C@@H]4CCC5=Cc6c(cnn6-c6ccc(F)c(CO)c6)C[C@]5(C)[C@H]4[C@@H](O)C[C@]3(C)[C@]2(C(=O)CO)O1 [Example 21, 1-[(4aR,4bS,5S,6aS,6bS,9aR,10aS,10bS)-1-[4-Fluoro-3-(hydroxymethyl)phenyl]-5-hydroxy-4a,6a,8,8-tetramethyl-4,4a,4b,5,6,6a,9a,10,10a,10b,11,12-dodecahydro[1,3]dioxolo[3′,4′]cyclopenta[1′,2′:5,6]naphtho[1,2-f]indazol-6b(1H)-yl]-2-hydroxyethanone]
IC50: 5.5 nM

CCC[C@@H]1O[C@@H]2C[C@H]3[C@@H]4CCC5=Cc6c(cnn6-c6ccc(F)c(C(=O)OC)c6)C[C@]5(C)[C@H]4[C@@H](O)C[C@]3(C)[C@]2(C(=O)CO)O1 [Example 22, Methyl 2-fluoro-5-[(4aR,4bS,5S,6aS,6bS,8R,9aR,10aS,10bS)-6b-glycoloyl-5-hydroxy-4a,6a-dimethyl-8-propyl-4a,4b,5,6,6a,6b,9a,10,10a,10b,11,12-dodecahydro[1,3]dioxolo[3′,4′]cyclopenta[1′,2′:5,6]naphtho[1,2-f]indazol-1(4H)-yl]benzoate]
IC50: 5.9 nM

CCC[C@H]1O[C@@H]2C[C@H]3[C@@H]4CCC5=Cc6c(cnn6-c6ccc(F)c(C(=O)OC)c6)C[C@]5(C)[C@H]4[C@@H](O)C[C@]3(C)[C@]2(C(=O)CO)O1 [Example 23, Methyl 2-fluoro-5-[(4aR,4bS,5S,6aS,6bS,8S,9aR,10aS,10bS)-6b-glycoloyl-5-hydroxy-4a,6a-dimethyl-8-propyl-4a,4b,5,6,6a,6b,9a,10,10a,10b,11,12-dodecahydro[1,3]dioxolo[3′,4′]cyclopenta[1′,2′:5,6]naphtho[1,2-f]indazol-1(4H)-yl]benzoate]
IC50: 5.9 nM

CC1(C)O[C@@H]2C[C@H]3[C@@H]4C=CC5=Cc6c(cnn6-c6ccc(F)cc6)C[C@]5(C)[C@H]4[C@@H](O)C[C@]3(C)[C@]2(C(=O)CO)O1 [Example 24, 1-[(4aR,4bS,5S,6aS,6bS,9aR,10aS,10bS)-1-(4-Fluorophenyl)-5-hydroxy-4a,6a,8,8-tetramethyl-4,4a,4b,5,6,6a,9a,10,10a,10b-decahydro[1,3]dioxolo[3′,4′]cyclopenta-[1′,2′:5,6]naphtho[1,2-f]indazol-6b(1H)-yl]-2-hydroxyethanone]
IC50: 3.8 nM
